Laboratory results: patent US20200261484A1, “INHIBITION OF AUTISM SPECTRUM DISORDER USING RIBOSOMAL READ-THROUGH COMPOUNDS” (Friedrich Miescher Inst. for Biomedical Research, priority 2017, published 2020)

Tested on: Adnp-PTC718 expressing cells
Assay: Streptavidin purification and LC-MS/MS of FLAG/Avi-tagged Adnp-PTC718 from cells with and without aminoglycoside treatment (stop codon read-through, ChAHP complex formation)
Assay type: cell-based, mouse
Settings: Adnp-PTC718 expressing cells treated with 2 mg/ml gentamycin (2.9 mM) or paromomycin (3.2 mM) for 24 hours; LC-MS/MS of streptavidin-purified Adnp-PTC718
Protocol: FLAG/Avi-tagged Adnp-PTC718 was streptavidin purified from cells with and without aminoglycoside treatment and subjected to LC-MS/MS analysis. Adnp-PTC718 expressing cells were treated with 2 mg/ml gentamycin (2.9 mM) or paromomycin (3.2 mM) for 24 hours. The table depicts total spectral counts, unique peptides and percent sequence coverage for all ChAHP components from the different treatments.
Cells were grown to confluency on 10 cm dish, collected in PBS, and pelleted by 2 min centrifugation at 400 g. All subsequent steps were performed on ice or at 4 C. Pellets were resuspended in 3 ml of Nuclear extract buffer 1 (NEB1: 20 mM HEPES, 10 mM KCl, 1 mM EDTA, 0.1 mM Na3VO4, 0.2% NP-40, 10% glycerol, 1 mM DTT, 1×PIC) followed by centrifugation at 1000 g for 3 min. […] Protein concentration was determined using Bradford assay, and approximately 250 µg of nuclear extracts were used per affinity purification. […] The generated peptides were acidified with TFA to a final concentration of 0.8% and analyzed by capillary liquid chromatography tandem mass spectrometry with an EASY-nLC 1000 using the two-column set-up (Thermo Scientific). […] Protein identification and relative quantification of the proteins was done with MaxQuant version 1.5.3.8 using Andromeda as search engine^33 and label free quantification (LFQ.^34) as described in^35. […]

Compound	formation of the ChAHP complex (stop codon read-through)
NC[C@@H]1O[C@H](O[C@H]2[C@@H](O)[C@H](O[C@@H]3[C@@H](O)[C@H](N)C[C@H](N)[C@H]3O[C@H]3O[C@H](CO)[C@@H](O)[C@H](O)[C@H]3N)O[C@@H]2CO)[C@H](N)[C@@H](O)[C@@H]1O [paromomycin]	restore the formation of the ChAHP complex
gentamycin	restore the formation of the ChAHP complex
